Experimental data: the kinase profiling compilation of Christmann-Franck et al. (2016)

Columns and labels:
Experiment in all cases: KINOMEscan competition binding
Details in all cases: compound 10.0 µM
[1] = biological target: EIF2AK1 (human) (UniProt Q9BQI3)
[2] = biological target: MAP3K15 (human) (UniProt Q6ZN16)
[3] = biological target: MAST1 (human) (UniProt Q9Y2H9)
[4] = biological target: GRK7 (human) (UniProt Q8WTQ7)
[5] = biological target: ERN1 (human) (UniProt O75460)
[6] = tested on: EGFR (human), P00533 [P753S; 747-752 del]
[7] = biological target: TBK1 (human) (UniProt Q9UHD2)
[8] = biological target: NEK11 (human) (UniProt Q8NG66)
[9] = biological target: MATK (human) (UniProt P42679)
[10] = biological target: OXSR1 (human) (UniProt O95747)
OXSR1 (human), sequence (O95747 whole entry, looked up): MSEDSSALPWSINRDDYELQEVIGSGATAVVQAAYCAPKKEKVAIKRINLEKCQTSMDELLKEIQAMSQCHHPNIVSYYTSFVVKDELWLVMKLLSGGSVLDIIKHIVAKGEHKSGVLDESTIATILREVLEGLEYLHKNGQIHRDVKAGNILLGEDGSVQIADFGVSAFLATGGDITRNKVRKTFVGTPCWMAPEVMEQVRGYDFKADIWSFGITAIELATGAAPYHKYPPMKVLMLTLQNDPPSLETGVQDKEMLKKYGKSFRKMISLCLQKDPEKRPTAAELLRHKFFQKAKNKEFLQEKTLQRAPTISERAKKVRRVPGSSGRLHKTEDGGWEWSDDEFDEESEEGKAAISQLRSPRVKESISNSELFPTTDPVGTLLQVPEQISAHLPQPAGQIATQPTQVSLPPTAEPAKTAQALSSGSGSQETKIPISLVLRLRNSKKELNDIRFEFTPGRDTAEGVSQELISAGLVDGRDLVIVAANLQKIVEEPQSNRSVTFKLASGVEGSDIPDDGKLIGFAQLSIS

[11] = tested on: ABL1 (human), P00519 [E255K]
[12] = biological target: ROCK1 (human) (UniProt Q13464)
ROCK1 (human), sequence (Q13464 whole entry, looked up): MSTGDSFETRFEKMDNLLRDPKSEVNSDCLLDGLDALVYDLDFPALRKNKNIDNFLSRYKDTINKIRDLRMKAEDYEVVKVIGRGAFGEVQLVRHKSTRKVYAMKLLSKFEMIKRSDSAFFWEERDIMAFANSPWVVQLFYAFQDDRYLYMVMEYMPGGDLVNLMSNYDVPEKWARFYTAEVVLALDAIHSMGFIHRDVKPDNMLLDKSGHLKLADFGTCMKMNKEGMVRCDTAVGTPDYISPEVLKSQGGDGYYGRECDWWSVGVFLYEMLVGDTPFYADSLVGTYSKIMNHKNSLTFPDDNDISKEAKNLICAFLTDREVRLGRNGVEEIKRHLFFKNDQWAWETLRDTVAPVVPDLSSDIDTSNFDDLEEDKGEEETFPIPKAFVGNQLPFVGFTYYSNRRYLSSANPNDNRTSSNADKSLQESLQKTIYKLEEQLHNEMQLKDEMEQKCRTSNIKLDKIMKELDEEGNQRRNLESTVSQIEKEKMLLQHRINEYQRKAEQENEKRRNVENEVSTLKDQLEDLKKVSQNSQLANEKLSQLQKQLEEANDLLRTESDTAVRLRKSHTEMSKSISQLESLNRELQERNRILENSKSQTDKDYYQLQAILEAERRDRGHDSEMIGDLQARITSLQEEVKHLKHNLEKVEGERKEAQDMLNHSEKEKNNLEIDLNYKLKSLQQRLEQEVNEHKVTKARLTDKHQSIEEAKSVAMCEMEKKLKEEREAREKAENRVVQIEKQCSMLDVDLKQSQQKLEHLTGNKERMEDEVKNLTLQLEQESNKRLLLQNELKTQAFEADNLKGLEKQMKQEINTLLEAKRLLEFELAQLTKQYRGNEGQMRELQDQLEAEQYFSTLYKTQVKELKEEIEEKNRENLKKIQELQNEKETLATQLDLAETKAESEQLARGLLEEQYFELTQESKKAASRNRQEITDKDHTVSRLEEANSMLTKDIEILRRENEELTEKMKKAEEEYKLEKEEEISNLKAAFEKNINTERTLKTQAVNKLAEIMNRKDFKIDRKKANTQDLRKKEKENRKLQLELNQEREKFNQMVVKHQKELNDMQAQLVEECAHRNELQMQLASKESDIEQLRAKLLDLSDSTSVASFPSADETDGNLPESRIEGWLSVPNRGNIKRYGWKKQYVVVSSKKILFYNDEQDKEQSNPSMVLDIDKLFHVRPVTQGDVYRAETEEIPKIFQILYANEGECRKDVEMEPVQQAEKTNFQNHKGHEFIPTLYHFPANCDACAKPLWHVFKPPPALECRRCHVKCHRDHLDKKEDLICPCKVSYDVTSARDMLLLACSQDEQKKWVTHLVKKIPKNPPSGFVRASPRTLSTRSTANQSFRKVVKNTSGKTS

[13] = biological target: RPS6KB1 (human) (UniProt P23443)
RPS6KB1 (human), sequence (P23443 whole entry, looked up): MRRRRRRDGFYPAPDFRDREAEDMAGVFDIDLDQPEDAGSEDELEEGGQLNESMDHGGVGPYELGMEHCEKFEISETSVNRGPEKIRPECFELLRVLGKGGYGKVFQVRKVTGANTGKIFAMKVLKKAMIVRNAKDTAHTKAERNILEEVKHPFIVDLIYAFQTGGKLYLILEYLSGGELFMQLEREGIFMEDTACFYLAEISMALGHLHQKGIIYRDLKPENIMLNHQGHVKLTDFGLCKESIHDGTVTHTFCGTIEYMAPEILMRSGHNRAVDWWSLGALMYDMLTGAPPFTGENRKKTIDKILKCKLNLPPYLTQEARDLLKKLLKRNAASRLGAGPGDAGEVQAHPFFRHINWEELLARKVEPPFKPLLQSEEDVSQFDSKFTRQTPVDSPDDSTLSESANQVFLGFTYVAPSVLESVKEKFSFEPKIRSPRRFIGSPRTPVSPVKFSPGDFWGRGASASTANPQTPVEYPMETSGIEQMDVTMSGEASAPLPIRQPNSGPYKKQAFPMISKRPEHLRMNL

[14] = biological target: SBK1 (human) (UniProt Q52WX2)
[15] = tested on: EGFR (human), P00533 [746-750 del]
[16] = biological target: MAP3K2 (human) (UniProt Q9Y2U5)
[17] = biological target: CDKL1 (human) (UniProt Q00532)
[18] = biological target: MAP3K13 (human) (UniProt O43283)
[19] = biological target: LRRK2 (human) (UniProt Q5S007)
[20] = biological target: CRK2 (P.falciparum) (UniProt P61075)
[21] = biological target: HIPK4 (human) (UniProt Q8NE63)
[22] = biological target: CSNK1A1 (human) (UniProt P48729)
[23] = biological target: MTOR (human) (UniProt P42345)
[24] = biological target: BRAF (human) (UniProt P15056)
[25] = tested on: FLT3 (human), P36888 [K663Q]
[26] = tested on: KIT (human), P10721 [V559D/T670I]
[27] = biological target: EPHB6 (human) (UniProt O15197)
EPHB6 (human), sequence (O15197 whole entry, looked up): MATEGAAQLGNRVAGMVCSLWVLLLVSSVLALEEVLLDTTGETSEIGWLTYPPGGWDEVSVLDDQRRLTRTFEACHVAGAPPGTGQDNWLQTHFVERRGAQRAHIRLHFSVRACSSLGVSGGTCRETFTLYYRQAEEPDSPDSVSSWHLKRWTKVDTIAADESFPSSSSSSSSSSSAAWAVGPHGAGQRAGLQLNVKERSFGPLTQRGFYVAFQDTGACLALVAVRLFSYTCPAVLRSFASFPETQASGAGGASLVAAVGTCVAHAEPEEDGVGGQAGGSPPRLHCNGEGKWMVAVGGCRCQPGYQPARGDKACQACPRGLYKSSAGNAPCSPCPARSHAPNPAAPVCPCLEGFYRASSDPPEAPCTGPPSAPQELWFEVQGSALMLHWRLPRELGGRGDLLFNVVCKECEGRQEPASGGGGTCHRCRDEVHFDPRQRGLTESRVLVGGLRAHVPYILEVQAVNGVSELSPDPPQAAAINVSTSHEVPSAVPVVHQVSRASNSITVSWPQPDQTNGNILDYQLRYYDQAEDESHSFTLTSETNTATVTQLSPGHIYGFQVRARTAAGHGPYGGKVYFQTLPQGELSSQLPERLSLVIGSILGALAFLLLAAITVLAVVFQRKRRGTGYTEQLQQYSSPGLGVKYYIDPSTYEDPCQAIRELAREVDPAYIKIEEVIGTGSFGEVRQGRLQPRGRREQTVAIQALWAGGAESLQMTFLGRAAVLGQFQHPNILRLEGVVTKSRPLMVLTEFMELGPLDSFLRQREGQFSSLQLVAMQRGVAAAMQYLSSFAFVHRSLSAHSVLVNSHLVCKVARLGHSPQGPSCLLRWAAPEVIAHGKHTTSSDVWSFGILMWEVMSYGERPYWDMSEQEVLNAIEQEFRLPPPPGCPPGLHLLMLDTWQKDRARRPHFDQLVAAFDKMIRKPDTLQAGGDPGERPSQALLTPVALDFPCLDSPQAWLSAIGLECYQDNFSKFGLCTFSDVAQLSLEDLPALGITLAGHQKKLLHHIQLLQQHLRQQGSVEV

[28] = biological target: SGK3 (human) (UniProt Q96BR1)
[29] = biological target: NEK3 (human) (UniProt P51956)
NEK3 (human), sequence (P51956 whole entry, looked up): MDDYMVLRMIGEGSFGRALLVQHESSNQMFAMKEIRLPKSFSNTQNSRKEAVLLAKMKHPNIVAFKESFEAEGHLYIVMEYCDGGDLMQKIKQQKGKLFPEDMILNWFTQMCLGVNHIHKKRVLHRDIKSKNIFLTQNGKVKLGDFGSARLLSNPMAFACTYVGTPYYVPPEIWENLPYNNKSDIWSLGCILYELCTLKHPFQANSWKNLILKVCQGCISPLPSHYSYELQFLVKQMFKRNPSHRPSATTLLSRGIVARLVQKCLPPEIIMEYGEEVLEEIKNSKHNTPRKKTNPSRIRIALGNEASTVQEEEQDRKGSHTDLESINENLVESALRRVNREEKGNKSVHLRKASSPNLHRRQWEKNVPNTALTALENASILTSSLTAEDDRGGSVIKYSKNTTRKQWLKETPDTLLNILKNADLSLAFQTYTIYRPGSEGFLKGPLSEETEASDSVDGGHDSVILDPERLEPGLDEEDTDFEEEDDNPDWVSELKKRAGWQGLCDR

[30] = biological target: DYRK2 (human) (UniProt Q92630)
[31] = biological target: PI4KB (human) (UniProt Q9UBF8)
[32] = biological target: MAP2K7 (human) (UniProt O14733)
[33] = biological target: ERBB3 (human) (UniProt P21860)
[34] = biological target: KIT (human) (UniProt P10721)
[35] = biological target: CDK2 (human) (UniProt P24941)
[36] = biological target: TIE1 (human) (UniProt P35590)
[37] = biological target: HIPK3 (human) (UniProt Q9H422)
[38] = tested on: PIK3CA (human), P42336 [E545K]
[39] = biological target: PIK3CG (human) (UniProt P48736)
[40] = tested on: PIK3CA (human), P42336 [I800L]

ERN1 (human), sequence (O75460 whole entry, looked up): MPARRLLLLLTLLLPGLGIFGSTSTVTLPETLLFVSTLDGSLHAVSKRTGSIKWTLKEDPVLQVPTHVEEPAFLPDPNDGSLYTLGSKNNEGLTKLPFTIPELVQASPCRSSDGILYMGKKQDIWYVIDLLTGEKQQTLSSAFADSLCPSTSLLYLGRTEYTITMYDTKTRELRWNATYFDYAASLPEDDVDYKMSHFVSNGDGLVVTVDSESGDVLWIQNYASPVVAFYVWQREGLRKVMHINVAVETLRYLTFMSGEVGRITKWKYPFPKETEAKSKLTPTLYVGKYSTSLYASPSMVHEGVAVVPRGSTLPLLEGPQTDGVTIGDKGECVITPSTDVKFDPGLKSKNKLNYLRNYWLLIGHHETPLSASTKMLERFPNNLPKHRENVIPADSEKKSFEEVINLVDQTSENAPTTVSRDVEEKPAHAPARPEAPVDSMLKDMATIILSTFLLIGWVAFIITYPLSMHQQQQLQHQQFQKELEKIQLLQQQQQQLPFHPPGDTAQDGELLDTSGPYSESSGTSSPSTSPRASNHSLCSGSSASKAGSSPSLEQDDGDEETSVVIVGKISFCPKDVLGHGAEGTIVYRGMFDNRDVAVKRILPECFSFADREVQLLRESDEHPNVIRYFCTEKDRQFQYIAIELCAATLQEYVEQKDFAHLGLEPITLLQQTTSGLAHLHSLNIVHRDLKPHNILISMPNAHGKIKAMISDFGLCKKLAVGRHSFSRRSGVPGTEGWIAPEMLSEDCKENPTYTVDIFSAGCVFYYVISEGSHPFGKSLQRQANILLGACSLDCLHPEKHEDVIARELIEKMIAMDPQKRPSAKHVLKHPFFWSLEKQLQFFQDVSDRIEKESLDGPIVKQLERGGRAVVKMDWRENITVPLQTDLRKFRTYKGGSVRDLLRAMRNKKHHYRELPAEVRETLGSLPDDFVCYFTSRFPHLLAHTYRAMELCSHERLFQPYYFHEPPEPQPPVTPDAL

Row | Structure (SMILES) | kinase still bound, per cent of control [1] | kinase still bound, per cent of control [2] | kinase still bound, per cent of control [3] | kinase still bound, per cent of control [4] | kinase still bound, per cent of control [5] | kinase still bound, per cent of control [6] | kinase still bound, per cent of control [7] | kinase still bound, per cent of control [8] | kinase still bound, per cent of control [9] | kinase still bound, per cent of control [10] | kinase still bound, per cent of control [12] | kinase still bound, per cent of control [13] | kinase still bound, per cent of control [14] | kinase still bound, per cent of control [15] | kinase still bound, per cent of control [16] | kinase still bound, per cent of control [17] | kinase still bound, per cent of control [18] | kinase still bound, per cent of control [19] | kinase still bound, per cent of control [20] | kinase still bound, per cent of control [21] | also measured
1 | Cc1cc([C@@H](C)Nc2ccccc2C(=O)O)c2nc(N3CCOCC3)cc(=O)n2c1 | 97% | 87% | 100% | 57% | 91% | 100% | 100% | 100% | 96% | 100% | 73% | 72% | 100% | 100% | 100% | 100% | 100% | 100% | 98% | 100% | kinase still bound, per cent of control [11]: 94%; kinase still bound, per cent of control [22]: 63%; kinase still bound, per cent of control [23]: 11%; kinase still bound, per cent of control [24]: 100%; kinase still bound, per cent of control [25]: 13%; kinase still bound, per cent of control [26]: 91%; kinase still bound, per cent of control [27]: 41%; kinase still bound, per cent of control [28]: 86%; kinase still bound, per cent of control [29]: 100%; kinase still bound, per cent of control [30]: 89%; kinase still bound, per cent of control [31]: 100%; kinase still bound, per cent of control [32]: 90%; kinase still bound, per cent of control [33]: 100%; kinase still bound, per cent of control [34]: 91%; kinase still bound, per cent of control [35]: 93%; kinase still bound, per cent of control [36]: 100%; kinase still bound, per cent of control [37]: 89%
2 | C[C@@H](Oc1cc(-n2cnc3ccc(CN4CCN(C)CC4)cc32)sc1C(N)=O)c1ccccc1C(F)(F)F | 94% | 24% | 3.1% | 33% | 34% | 97% | 84% | 100% | 52% | 98% | 7.9% | 52% | 55% | 100% | 100% | 75% | 87% | 60% | 100% | 36% | kinase still bound, per cent of control [38]: 71%; kinase still bound, per cent of control [39]: 6.4%; kinase still bound, per cent of control [11]: 55%; kinase still bound, per cent of control [22]: 91%; kinase still bound, per cent of control [23]: 55%; kinase still bound, per cent of control [40]: 24%; kinase still bound, per cent of control [24]: 79%; kinase still bound, per cent of control [25]: 14%; kinase still bound, per cent of control [26]: 37%; kinase still bound, per cent of control [27]: 59%; kinase still bound, per cent of control [28]: 28%; kinase still bound, per cent of control [29]: 100%; kinase still bound, per cent of control [30]: 54%; kinase still bound, per cent of control [31]: 100%; kinase still bound, per cent of control [32]: 80%; kinase still bound, per cent of control [33]: 100%; kinase still bound, per cent of control [34]: 47%; kinase still bound, per cent of control [35]: 85%; kinase still bound, per cent of control [37]: 37%
3 | O=C(O)c1ccc(Nc2ncc3c(n2)-c2ccc(Cl)cc2C(c2c(F)cccc2F)=NC3)cc1 | 89% | 82% | 100% | 31% | 100% | 28% | 100% | 100% | 84% | 94% | 63% | 54% | 100% | 28% | 100% | 100% | 100% | 82% | 100% | 31% | kinase still bound, per cent of control [38]: 100%; kinase still bound, per cent of control [39]: 100%; kinase still bound, per cent of control [22]: 73%; kinase still bound, per cent of control [23]: 75%; kinase still bound, per cent of control [40]: 84%; kinase still bound, per cent of control [24]: 100%; kinase still bound, per cent of control [25]: 68%; kinase still bound, per cent of control [27]: 41%; kinase still bound, per cent of control [28]: 100%; kinase still bound, per cent of control [29]: 100%; kinase still bound, per cent of control [31]: 100%; kinase still bound, per cent of control [32]: 100%; kinase still bound, per cent of control [33]: 74%; kinase still bound, per cent of control [35]: 84%; kinase still bound, per cent of control [37]: 80%
